Legend:
[1] = tested on: MC3T3-E1 cell; experiment: Alkaline phosphatase (ALP) activity in MC3T3-E1 cells; type: cell-based; details: 3 days; for activity at 1 µM: Mus musculus, 72 h, read-out: ALP activity (1 μM, % of Control) MC3T3-E1 cell
Procedure: (§1) Differentiation and activity of osteoblasts were indirectly evaluated by measuring an ALP activity having a close relationship with osteogenesis.
(§2) Osteoblasts (Calvarial cells) prepared in Experimental Example 1 and MC3T3-E1 cells (available from RIKEN Cell Bank, Japan) were collected in α-MEM supplemented with 10% FBS, followed by cell counting. The cells were dispensed into 24-well cultureware at a density of 2×10^4 cells/well. After culturing of the cells for 24 hours, the culture media were discarded and replaced with fresh media in which test compounds were diluted to a concentration of 1 μM (1 mL/well). In addition, the vehicle control group containing 0.1% DMSO was also treated. Under the conditions where the compounds were treated, the cells were cultured in a 5% CO2 […] at 37° for 3 days. When the experiment was terminated, the supernatant was removed and the cells were washed three times with cold phosphate buffer at 4°. 0.2% Triton X-100 was added to the washed cells which were then subjected to three cycles of freezing at −70° and thawing at room temperature for the complete lysis of cells. The cell extracts were pooled and centrifuged to collect the cell supernatant which was used for the measurement of ALP activity and proteins. The protein concentration was measured using a BCA assay kit (manufactured by Sigma-Aldrich). For the measurement of ALP activity, p-nitrophenylphosphate was added to the cell supernatant which was then incubated at 37° for 30 minutes, and the reaction was terminated with the addition of 50 μL of 0.2N sodium hydroxide. The standard curve was plotted at the absorbance of 405 nm using p-nitrophenol as a standard material and then the absorbance of test materials thus reacted was measured to determine the production amount of p-nitrophenol.
(§3) The ALP activity was calculated by dividing the amount of p-nitrophenol produced from each test material by the protein amount and the reaction time. Therefore, the unit of ALP activity was given in terms of p-nitrophenol/μg protein/min. The results are given in Table 3 where the ALP activity unit of each test material was given in terms of % change through the comparison between the individual test materials and the vehicle control group.

[2] = tested on: osteoclastogenesis (formation of multinucleated osteoclasts); experiment: Osteoclastogenesis inhibition via co-culture system (bone marrow cells + osteoblasts, TRAP staining); type: cell-based, mouse; details: 7 days co-culture, vs vehicle control; for Osteoclastogenesis inhibition (%): 1 μM; for inhibition at 1 µM: Mus musculus, Osteoclast, 168 h
Procedure: Osteoclastogenesis inhibitory effects of the compounds of the present invention were evaluated via a co-culture system (Reference: Endocrinology 137(1996), 2187 to 2190, E. Jimi et al.). A specific experimental method is as follows.
1) Preparation of Bone Marrow Cells and Osteoblasts
Femur and tibia were aseptically dissected from 6 to 8-week-old male ddY mice to harvest bone marrow cells by a conventional method using a syringe. In brief, tissues were removed from the dissected bone, the bone ends were cut off with scissors, and the bone marrow was isolated by pushing a medium-containing syringe (23G) against the one end of the cut bone. The isolated bone marrow was subjected to repeated piston movement of a syringe such that single cells were obtained (Reference: Endocrinology 123(1988), 2600 to 2602, Takahashi et al.). After removal of red blood cells within the bone marrow, the bone marrow cells recovered by centrifugation were placed in an α-MEM supplemented with 10% fetal bovine serum (FBS), followed by counting of nucleated cells and then were immediately used for a co-culture system.
For the preparation of osteoblasts (Calvarial cells), the cranial bone were aseptically dissected from 1 to 2-day-old neonatal ICR mice and subjected to continuous reaction with a 0.2% collagenase solution to separate osteoblasts. The cell-suspended supernatant was centrifuged to recover osteoblasts which were grown to full confluence in an α-MEM supplemented with 10% FBS and then diluted to a desired cell density for use in the experiment.
2) Osteoclastogenesis Inhibition Experiment Via Co-Culture System
As the medium used for a co-culture system, a differentiation medium with the addition of differentiation factors 1α,25-dihydroxyvitamin D3 (10^−8M) and dexamethasone (10^−8M) to α-MEM supplemented with 10% FBS was used for the induction of osteoclastogenesis. First, the compounds of the present invention dissolved in dimethyl sulfoxide (DMSO) at a concentration of 1 mM were diluted to 2 μM using the above-mentioned differentiation medium. As a vehicle control group, 0.2% (v/v) DMSO was added to the medium. 100 μL/well of each medium was added to 96-well plates. In addition, the above prepared bone marrow cells and osteoblasts were plated onto 96-well plates at a density of 1×10^5 cells/50 μL/well and 3×10^3 cells/50 μL/well, respectively. The total volume/well was 200 μL and the final compound concentration was 1 μM. The control group was 0.1% (v/v) DMSO. The cells were cultured with exchange of the culture media with fresh media containing differentiation factors and test materials (materials containing the compounds of the present invention) at an interval of 2 to 3 days.
7 days after culturing of cells, the formation of multinucleated osteoclasts was confirmed by microscopic examination, the medium was removed from the wells and then the cells were fixed in a 10% phosphate-buffered formalin solution. The degree of formation of mature osteoclasts was measured taking advantage of the characteristics of osteoclasts showing a positive reaction to a tartrate-resistant acid phosphatase (TRAP) staining solution. The TRAP staining solution was prepared in a manner such that naphthol AS-MS phosphate as a substrate and a coloring agent (Fast Red Violet LB salt) were dissolved in N,N-dimethylformamide, and a 0.1N NaHCO3 buffer solution containing 50 mM of tartaric acid was added thereto. Among the TRAP-positive cells under a light microscope, multinucleated osteoclasts having 6 to 7 nuclei were regarded as mature osteoclasts.
The degree of inhibition of osteoclastogenesis was calculated according to the following equation 1. The results are summarized in Table 2 below (Experiments were carried out for 4 wells/experimental group (n=4), and the results are given in terms of mean±standard deviation) […]

[3] = tested on: Calvarial cell; experiment: Cytotoxicity test (MTT) in osteoblasts (calvarial cells); details: 1 μM, 72 hours, vs vehicle control
Procedure: Drugs were diluted to a concentration of 2 μM in α-MEM culture media supplemented with 10% FBS. The vehicle control group was established to contain 0.2% DMSO. 100 μL/well of the diluted drugs were dispensed into 96-well plates to which osteoblasts (calvarial cells) prepared in Experimental Example 1 were then added at a density of 1.0×10^4 cells/100 μL/well. Here, the final compound concentration in the cell culture was 1 μM, and the vehicle control group contained 0.1% DMSO. The cells were cultured in a 5% CO2 inhibitorr at 37° for 72 hours. 25 μL of 3-(4,5-dimethyl-2-thiazolyl)-2,5-diphenyl-2H-tetrazolium bromide (MTT) dissolved in PBS (2 mg/mL) was added to each cell culture 4 hours before the end of culture. After completion of the reaction, the plates were centrifuged, the media were discarded, and 100 μL of formazan was added and dissolved in dimethyl sulfoxide (DMSO). Finally, the absorbance of the developed plates was measured at 540 nm. The cell viability was expressed as % concentration in comparison with the vehicle control group.

[4] = tested on: Calvarial cell; experiment: Alkaline phosphatase (ALP) activity in osteoblasts (Calvarial cells); type: cell-based, mouse; details: 3 days; for activity at 1 µM: Mus musculus, 72 h, read-out: ALP activity (1 μM, % of Control) Calvarial cell
Procedure: as §1, §2, §3

CN(CCO)c1ccc([N+](=O)[O-])c(Nc2ccc3[nH]ncc3c2)n1 [Compound 7, 2-(1H-indazol-5-yl)amino-6-[(N-methyl-2-hydroxyethyl)amino]-3-nitropyridine]
ALP activity (1 μM, % of Control) MC3T3-E1 cell [1]: 155 % of Control
Osteoclastogenesis inhibition (%) [2]: 72%
Cell viability (%) Calvarial cell [3]: 103%
ALP activity (1 μM, % of Control) Calvarial cell [4]: 221 % of Control

CC(C)CNc1ccc([N+](=O)[O-])c(Nc2ccc3[nH]ncc3c2)n1 [Compound 8, 2-(1H-indazol-5-yl)amino-6-(isobutylamino)-3-nitropyridine]
activity at 1 µM [1]: 240%
inhibition at 1 µM [2]: 100%
Cell viability (%) Calvarial cell [3]: 96%
activity at 1 µM [4]: 157%

O=[N+]([O-])c1ccc(N2CCC(O)CC2)nc1Nc1ccc2[nH]ncc2c1 [Compound 9, 2-(1H-indazol-5-yl)amino-6-(4-hydroxypiperidino)-3-nitropyridine]
activity at 1 µM [1]: 112%
inhibition at 1 µM [2]: 100%
Cell viability (%) Calvarial cell [3]: 105%
activity at 1 µM [4]: 166%

O=[N+]([O-])c1ccc(N2CCNCC2)nc1Nc1ccc2[nH]ncc2c1 [Compound 10, 2-(1H-indazol-5-yl)amino-6-(piperazin-1-yl)-3-nitropyridine]
activity at 1 µM [1]: 124%
inhibition at 1 µM [2]: 99%
Cell viability (%) Calvarial cell [3]: 95%
activity at 1 µM [4]: 189%

CCN(CCO)c1ccc([N+](=O)[O-])c(Nc2ccc3[nH]ncc3c2)n1 [Compound 11, 2-(1H-indazol-5-yl)amino-6-[(N-ethyl-2-hydroxyethyl)amino]-3-nitropyridine]
ALP activity (1 μM, % of Control) MC3T3-E1 cell [1]: 140 % of Control
Osteoclastogenesis inhibition (%) [2]: 98%
Cell viability (%) Calvarial cell [3]: 105%
ALP activity (1 μM, % of Control) Calvarial cell [4]: 143 % of Control

CC(C)(C)Nc1ccc([N+](=O)[O-])c(Nc2ccc3[nH]ncc3c2)n1 [Compound 12, 2-(1H-indazol-5-yl)amino-6-(t-butylamino)-3-nitropyridine]
activity at 1 µM [1]: 136%
inhibition at 1 µM [2]: 99%
Cell viability (%) Calvarial cell [3]: 109%
activity at 1 µM [4]: 152%

O=[N+]([O-])c1ccc(NCCc2ccccn2)nc1Nc1ccc2cn[nH]c2c1 [Compound 14, 2-(1H-indazol-6-yl)amino-6-[(2-pyridyl)ethylamino]-3-nitropyridine]
activity at 1 µM [1]: 121%
inhibition at 1 µM [2]: 98%
Cell viability (%) Calvarial cell [3]: 91%
activity at 1 µM [4]: 111%

CN(C)CC(C)(C)CNc1ccc([N+](=O)[O-])c(Nc2ccc3[nH]ncc3c2)n1 [Compound 16, 2-(1H-indazol-5-yl)amino-6-[(3-dimethylamino-2,2-dimethyl)-propylamino]-3-nitropyridine]
ALP activity (1 μM, % of Control) MC3T3-E1 cell [1]: 144 % of Control
Osteoclastogenesis inhibition (%) [2]: 89%
Cell viability (%) Calvarial cell [3]: 104%
ALP activity (1 μM, % of Control) Calvarial cell [4]: 123 % of Control

CN(CC1OCCO1)c1ccc([N+](=O)[O-])c(Nc2ccc3[nH]ncc3c2)n1 [Compound 17, 2-(1H-indazol-5-yl)amino-6-[(N-[1,3]-dioxolan-2-ylmethyl)-methylamino]-3-nitropyridine]
ALP activity (1 μM, % of Control) MC3T3-E1 cell [1]: 188 % of Control
Osteoclastogenesis inhibition (%) [2]: 92%
Cell viability (%) Calvarial cell [3]: 89%
ALP activity (1 μM, % of Control) Calvarial cell [4]: 139 % of Control
